Target: T1, HCV RNA-dependent RNA polymerase (Hepatitis C virus genotype 1a, UniProt P27958)
T1 construct: HCV RNA-dependent RNA polymerase is encoded in the NS5B (nonstructural protein 5B) region of HCV; made in house; host or cells: insect cells or E. coli
Assay: DIG-UTP assay without radioisotope-labeled substrate, with pre-incubation (Example 2)
Type: biochemical
Settings: pre-incubation 25° C. 1 hr, I-1 0.5 μg/ml, 3′-dUTP 0.7 μM, A 100 μg/ml, B 50 μg/ml, C 25 μg/ml
Method: In Example 1, ^3H-UTP, that is UTP labeled with tritium as radioisotope was used as substrate in the assay with pre-incubation using HCV RNA-dependent RNA polymerase. Herein, digoxigenin-labeled UTP (DIG-UTP) instead of ^3H-UTP was used as substrate in the assay with pre-incubation using HCV RNA-dependent RNA polymerase. • 1) Streptavidin (1 mg/ml) was dissolved in the phosphate buffer saline (PBS) containing NaCl (0.137 M), KCl (2.68 mM), potassium dihydrogenphosphate (1.47 mM) and sodium phosphate (8.06 mM). • 2) The streptavidin solution was diluted 25-fold with the carbonate buffer containing sodium carbonate (0.9 M) and sodium hydrogencarbonate (0.1 M). • 3) The 25-fold streptavidin solution (50 μl/well) was transferred to a well of 96 wells-microtiter palate with flat bottom for immunoassay and then the plate was kept at 4° C. over night. • 4) After the 96 wells-microtiter plate was coated with streptavidin, the well was washed twice by adding, mixing and draining PBS (200 μl/well). • 5) The skim milk dissolved with PBS (1%, 300 μl) was transferred into each well and was kept at room temperature for 30 min. • 6) After the plate was washed once with PBS (200 μl/well), the well was filled with PBS (300 μl/well) and then the plate was stored at 4° C. • 7) After the PBS was drained from the streptavidin-coated plate stored under the condition described in 6), the well was washed once with PBS (200 μl/well) and was filled with de-ionized water (300 μl/well). • 8) The buffer I (10 μl) containing Tris-HCl (100 mM, pH 7.5), MgCl2 (25 mM), dithiothreitol (5 mM), KCl (125 mM) and ethylenediaminetetraacetic acid (5 mM) was transferred to a polypropylene tube and then poly(A) solution (6.25 μg/ml, 10 μl), biotin-labeled oligo(U)12 solution (3 μg/ml, 10 μl), water (10 μl) and HCV RNA-dependent RNA polymerase solution (10 μl) were added into the tube and mixed calmly. • 9) De-ionized water was drained from the plate described in 7), and the solution (50 μl/well) at once after the mixing described in 8) was transferred to each well. After mixing by a plate mixer, the solution was pre-incubated at 25° C. for 1 hr. • 10) On the other hand, the buffer I (10 μl) was transferred into another tube, and UTP (1 μM, 10 μl), DIG-UTP (300 μM, 1 μl), water (24 μl) and a test compound dissolved with dimethyl sulfoxide or water (5 μl) were added to the tube and mixed calmly. Concentrations of the compounds used were as follows.
• 11) The mixed solution (50 μl/well) described in 10) was transferred into each well after the pre-incubation described in 9), mixed by a plate mixer and then incubated at 25° C. for 1 hr. • 12) When the enzyme reaction was in 1 hr, the enzyme reaction was stopped by adding ethylenediaminetetraacetic acid (0.1 M, 50 μl/well). • 13) The plate was washed twice with PBS (200 μl/well) after end of the enzyme reaction. • 14) Next, alkaline phosphatase-labeled anti-DIG antibody (3 U/ml, 100 μl/well) diluted 250-fold with PBS containing skim milk (0.5%) was transferred each well. […] The substrate solution was transferred into each well of the plate, mixed by a plate mixer and then incubated at 25° C. for 1 hr until the color appears in the solution. • 17) The plate was set on a plate reader and the absorbance was measured at 405 nm. • 18) The inhibitory rate was calculated from the optical density (unit; OD) measured as follows. […]

T1 sequence (P27958 2421-3011): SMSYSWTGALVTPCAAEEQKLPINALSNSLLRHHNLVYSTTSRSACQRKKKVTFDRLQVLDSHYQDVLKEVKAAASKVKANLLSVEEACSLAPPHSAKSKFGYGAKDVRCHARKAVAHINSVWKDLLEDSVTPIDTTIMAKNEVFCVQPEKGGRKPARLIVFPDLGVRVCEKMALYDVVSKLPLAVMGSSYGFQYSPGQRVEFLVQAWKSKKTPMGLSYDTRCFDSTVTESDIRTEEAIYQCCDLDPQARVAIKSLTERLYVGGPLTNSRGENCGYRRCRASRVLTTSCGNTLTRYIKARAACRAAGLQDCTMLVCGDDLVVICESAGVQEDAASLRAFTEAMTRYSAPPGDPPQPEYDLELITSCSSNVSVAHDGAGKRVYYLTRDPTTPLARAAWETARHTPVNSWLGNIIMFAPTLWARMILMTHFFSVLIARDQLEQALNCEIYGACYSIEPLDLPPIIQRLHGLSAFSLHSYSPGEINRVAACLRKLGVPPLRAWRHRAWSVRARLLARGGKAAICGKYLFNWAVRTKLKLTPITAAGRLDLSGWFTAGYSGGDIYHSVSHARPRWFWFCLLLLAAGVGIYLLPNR

Structure (SMILES)	Inhibitory rate, treatment of pre-incubation + [%]	inhibition at 0.5 µg/mL (read-out: Inhibitory rate, treatment of pre-incubation +) [%]
O=C1NC(=O)C(=Cc2ccc(OCCc3cccc4ccccc34)cc2)C(=O)N1 [Compound B]	20	–
O=C(O)/C(O)=C/C(=O)c1cccc(O)c1 [Compound I-1]	–	52
CCCCC1=N/C(=C\c2ccccc2OCC(=O)O)C(=O)N1Cc1ccc(-c2ccccc2-c2nnn[nH]2)cc1 [Compound C]	15	–
O=c1ccn([C@@H]2O[C@H](COP(=O)(O)OP(=O)(O)OP(=O)(O)O)C[C@H]2O)c(=O)[nH]1 [3′-dUTP, 3′-deoxyuridine triphosphate]	50	–
Cc1oc(-c2ccccc2)nc1CCOc1ccc(C=C2C(=O)NC(=O)NC2=O)cc1 [Compound A]	24	–

From patent US7018796B2, “Preincubation assay methods” (Shionogi & Co., Ltd., priority 2000, dated 2006)
